Measured values as given in patent US20220259536A1, “MICROCHANNEL CELL CULTURE DEVICE AND SYSTEM” (THE CHARLES STARK DRAPER LABORATORY, INC., priority 2021, published 2022).

System: Human renal proximal tubule cells
Assay: optical label-free measurement of cell oxygen consumption in multi-well microfluidic tissue culture device
Format: cell-based
Details: human renal proximal tubule cells treated with Oligomycin; static conditions after turning off pumps; FIG. 15B, varying drug concentrations
Excerpt: An optical luminescence-based oxygen sensing system was integrated with an existing multi-well microfluidic tissue culture device, for label-free oxygen monitoring (FIG. 13). Sensor spots having a diameter of 0.75 mm were cut with a biopsy punch from a sheet of photosensitive film (PyroScience) and bonded with 184 Sylgard silicone adhesive to the center floor of each basal channel. The photosensitive sensor spot was located about 200 μm from the tissue layer on the surface of bottom channel. A FireStingO2 optical oxygen meter (PyroScience) with a 2 m fiber optic cable (external to channel) was used to monitor oxygen in each device. For oxygen measurements, the device was placed in an incubated confocal microscope (Zeiss Inc., Oberkochen, Germany) and the fiber optic was secured below the microscope stage. The stage was programmed to align the fiber optic with each sensor for oxygen monitoring in all 96 tissue modeling environments. A 2-point calibration of the FireStingO2 system was performed using devices filled with air saturated PBS and a 0% oxygen solution (30 g/L sodium sulfite in water). […] Tissue oxygen consumption was measured for the human renal proximal tubule cells by cycling the pumps carrying oxygen rich fluid on and off (FIG. 14). As shown in the graph of FIG. 14, under static conditions, cell oxygen consumption was measured immediately upon turning off fluid pumps.

## CC[C@H]1/C=C/C=C/C[C@@H](C)[C@H](O)[C@@](C)(O)C(=O)[C@@H](C)[C@H](O)[C@@H](C)C(=O)[C@@H](C)[C@H](O)[C@@H](C)/C=C/C(=O)O[C@@H]2[C@H](C)[C@H](CC1)O[C@]1(CC[C@H](C)[C@H](C[C@@H](C)O)O1)[C@H]2C [Oligomycin]
  cell oxygen consumption rate: significant decrease
